# Measured values: US20160115540A1, “PRODRUGS AND DRUGS” (Biogen MA Inc., priority 2013, published 2016)
# Where a name gives a salt, the structure may show the parent alone.
# Tested on: lymph node
# Assay: Transcriptional profiling, chronic dosing, EAE mice: lymph node
# Format: in vivo
# Conditions: for Number of differentially expressed genes identified: Lymph Node: EAE, Chronic Dosing
# Description: EAE induction is generally performed by immunization with brain extracts, CNS proteins (such as myelin basic protein), or peptides from such protein emulsified in an adjuvant such as complete Freund's adjuvant, e.g., as described in Linker et al., Brain. 2011 March 134(Pt3): 678-92. […] FIG. 17 depicts exemplary immunophenotyping panels used to analyze various immune cell populations (e.g., T cells, T regulatory cells, NK cells, B cells, myeloid cells). […] The number of independent mice whose tissues were harvested for transcript profiling studies and whose data passed QC is shown in TABLE 15. Animals were exposed to CO2 and whole blood collected via cardiac puncture. Two 100 μl aliquots of whole blood were collected in 1.5 mL microcentrifuge tubes and snap frozen in liquid nitrogen. Peripheral (liver, spleen, kidney and jejunum) and CNS brain (cerebellum, hippocampus, striatum and cortex) tissues were harvested and snap frozen in liquid nitrogen, with special care taken to collect tissues of similar size and from the same location. All samples were stored at -80° C. until RNA extraction was conducted. For RNA preparation, frozen tissues were placed in 2 mL RNAse-free 96-well blocks with 1.5 mL QIAzol Lysis Reagent (QIAgen) and a 3.2 mm stainless steel bead (BioSpec Products, Bartlesville, Okla.). Tissues were disrupted for four cycles of 45 seconds in a Mini-Beadbeater (Biospec Products). RNA was extracted in chloroform and the aqueous phase was mixed with an equal volume of 70% ethanol. Extracted RNA was applied to RNeasy 96 plates and purified by the spin method according to the manufacturer's protocol (RNeasy 96 Universal Tissue Protocol, QIAgen, Hilden Germany). […] Washing and staining of the hybridized arrays were completed as described in the GeneChip Expression analysis technical manual for HT plate arrays using the Genechip® Array Station (Affymetrix, Santa Clara, Calif.) with modifications as described in […] et al. The processed GeneChip® plate arrays were scanned using GeneTitan scanner (Affymetrix, Santa Clara, Calif.). Affymetrix scans were subject to quality control (QC) measures. These tests included a visual inspection of the distribution of raw signal intensities and an assessment of RNA degradation, relative log expression (RLE), and normalized unscaled standard error (NUSE). All sample scans that passed these QC metrics were included in the analysis. All CEL files were subjected to GC-content-based Robust Multi-array Average (GCRMA) normalization (version 2.20.0) (Irizarry R A, et al. Nucleic Acids Res 2003; 31:e15; Li C, et al. Genome Biol 2001; 2:[…]0032). […] Stat Appl Genet Mol Biol 2004; 3:Article3). […] Springer Science+Business Media 2005). Changes in gene expression were studied by applying a linear modeling approach to fit gene expression levels according to the defined groups of samples (e.g. DMF-, MMF-, and Vehicle-treated animals) and Bayesian posterior error analysis as implemented by Smyth (Smyth G K. Stat Appl Genet Mol Biol 2004; 3:Article3). The comparisons considered included: DMF-vs-MMF, DMF-vs-Vehicle, MMF-vs-Vehicle, and Vehicle-vs-Naïve.
# [1] = lymph node, 100DMF-vs-90MMF, 7 h
# [2] = lymph node, 100DMF-vs-90MMF, 12 h
# [3] = lymph node, 100DMF-vs-Veh, 12 h
# [4] = lymph node, 100MMF-vs-Veh, 12 h
smiles,measurement,setting,value
"COC(=O)/C=C/C(=O)OC [DMF, dimethyl fumarate]",Number of differentially expressed genes identified: Lymph Node,"100 mpk DMF-vs-90 mpk MMF, 7 h after last dosing",2
same,Number of differentially expressed genes identified: Lymph Node,"100 mpk DMF-vs-90 mpk MMF, 12 h after last dosing",6
same,Number of differentially expressed genes identified: Lymph Node,"100 mpk DMF-vs-Vehicle, 7 h after last dosing",14
same,Number of differentially expressed genes identified: Lymph Node,"100 mpk DMF-vs-Vehicle, 12 h after last dosing",8
same,FC BC005685 (1426188_PM_s_at),[1],−1.54
same,FC Slc10a6 (1428776_PM_at),[1],−1.52
same,FC 1442025_PM_a_at (no gene symbol),[2],2.64
same,FC 1442026_PM_at (no gene symbol),[2],2.92
same,FC Angptl4 (1417130_PM_s_at),[2],2.93
same,FC Cpt1a (1460409_PM_at),[2],1.56
same,FC Klf11 (1437241_PM_at),[2],1.91
same,FC Zbtb16 (1419874_PM_x_at),[2],2.14
same,FC Clec4e (1420330_PM_at),"lymph node, 100DMF-vs-Veh, 7 h",1.55
same,FC Clec4d (1420804_PM_s_at),"lymph node, 100DMF-vs-Veh, 7 h",1.85
same,FC Gdf3 (1449288_PM_at),"lymph node, 100DMF-vs-Veh, 7 h",−1.57
same,FC Mmp12 (1449153_PM_at),"lymph node, 100DMF-vs-Veh, 7 h",3.33
same,FC Nqo1 (1423627_PM_at),"lymph node, 100DMF-vs-Veh, 7 h",2.79
same,FC Osgin1 (1424022_PM_at),"lymph node, 100DMF-vs-Veh, 7 h",1.54
same,FC Rnf128 (1449036_PM_at),"lymph node, 100DMF-vs-Veh, 7 h",1.71
same,FC Slc11a1 (1420361_PM_at),"lymph node, 100DMF-vs-Veh, 7 h",1.57
same,FC Srxn1 (1419942_PM_at),"lymph node, 100DMF-vs-Veh, 7 h",1.98
same,FC Srxn1 (1426875_PM_s_at),"lymph node, 100DMF-vs-Veh, 7 h",1.83
same,FC Tnfaip2 (1416273_PM_at),"lymph node, 100DMF-vs-Veh, 7 h",1.82
same,FC Tnfaip2 (1438855_PM_x_at),"lymph node, 100DMF-vs-Veh, 7 h",1.52
same,FC Ugt1a1 /// Ugt1a10 /// Ugt1a2 /// Ugt1a5 /// Ugt1a6a /// Ugt1a6b /// Ugt1a7c /// Ugt1a9 (1424783_PM_a_at),"lymph node, 100DMF-vs-Veh, 7 h",1.52
same,FC Ugt1a1 /// Ugt1a10 /// Ugt1a2 /// Ugt1a5 /// Ugt1a6a /// Ugt1a6b /// Ugt1a7c /// Ugt1a9 (1426261_PM_s_at),"lymph node, 100DMF-vs-Veh, 7 h",1.62
same,FC 1442025_PM_a_at (no gene symbol),[3],2.35
same,FC 1442026_PM_at (no gene symbol),[3],2.48
same,FC Clec4d (1420804_PM_s_at),[3],2.19
same,FC Gzmk (1422280_PM_at),[3],1.92
same,FC Npas2 (1421037_PM_at),[3],1.53
same,FC Nqo1 (1423627_PM_at),[3],1.70
same,FC Ugt1a1 /// Ugt1a10 /// Ugt1a2 /// Ugt1a5 /// Ugt1a6a /// Ugt1a6b /// Ugt1a7c /// Ugt1a9 (1424783_PM_a_at),[3],1.56
same,FC Zbtb16 (1419874_PM_x_at),[3],2.07
same,"Zbtb16 transcript signal, DMF-treated compared to MMF-treated animals","lymph node, chronically dosed EAE mice, 12 h after final dosing",increased signal
"COC(=O)/C=C/C(=O)O [MMF, monomethyl fumarate]",Number of differentially expressed genes identified: Lymph Node,"90 mpk MMF-vs-Vehicle, 7 h after last dosing",21
same,Number of differentially expressed genes identified: Lymph Node,"90 mpk MMF-vs-Vehicle, 12 h after last dosing",7
same,FC BC005685 (1426188_PM_s_at),"lymph node, 100MMF-vs-Veh, 7 h",1.54
same,FC C78662 (1442498_PM_at),"lymph node, 100MMF-vs-Veh, 7 h",1.68
same,FC Clec4e (1420330_PM_at),"lymph node, 100MMF-vs-Veh, 7 h",2.02
same,FC Clec4e (1420331_PM_at),"lymph node, 100MMF-vs-Veh, 7 h",1.80
same,FC Clec4d (1420804_PM_s_at),"lymph node, 100MMF-vs-Veh, 7 h",2.40
same,FC Ctgf (1416953_PM_at),"lymph node, 100MMF-vs-Veh, 7 h",2.34
same,FC Hs3st1 (1423450_PM_a_at),"lymph node, 100MMF-vs-Veh, 7 h",1.72
same,FC Il1f9 1425958_PM_at,"lymph node, 100MMF-vs-Veh, 7 h",1.86
same,FC Mmp12 (1449153_PM_at),"lymph node, 100MMF-vs-Veh, 7 h",5.16
same,FC Nqo1 (1423627_PM_at),"lymph node, 100MMF-vs-Veh, 7 h",2.59
same,FC Osgin1 (1424022_PM_at),"lymph node, 100MMF-vs-Veh, 7 h",1.50
same,FC Pla2g7 (1430700_PM_a_at),"lymph node, 100MMF-vs-Veh, 7 h",1.67
same,FC Rnf128 (1449036_PM_at),"lymph node, 100MMF-vs-Veh, 7 h",1.81
same,FC Slc11a1 (1420361_PM_at),"lymph node, 100MMF-vs-Veh, 7 h",1.57
same,FC Slc40a1 1448566_PM_at,"lymph node, 100MMF-vs-Veh, 7 h",1.87
same,FC Slc40a1 (1417061_PM_at),"lymph node, 100MMF-vs-Veh, 7 h",1.80
same,FC Srxn1 (1419942_PM_at),"lymph node, 100MMF-vs-Veh, 7 h",1.93
same,FC Srxn1 (1426875_PM_s_at),"lymph node, 100MMF-vs-Veh, 7 h",1.80
same,FC Tnfaip2 (1416273_PM_at),"lymph node, 100MMF-vs-Veh, 7 h",1.86
same,FC Tnfaip2 (1438855_PM_x_at),"lymph node, 100MMF-vs-Veh, 7 h",1.55
same,FC Ugt1a1 /// Ugt1a10 /// Ugt1a2 /// Ugt1a5 /// Ugt1a6a /// Ugt1a6b /// Ugt1a7c /// Ugt1a9 (1426261_PM_s_at),"lymph node, 100MMF-vs-Veh, 7 h",1.55
same,FC Ccl3 (1419561_PM_at),[4],2.22
same,FC Clec4d (1420804_PM_s_at),[4],2.43
same,FC Kcne3 (1418499_PM_a_at),[4],1.56
same,FC Mmp9 (1416298_PM_at),[4],1.82
same,FC Mmp12 (1449153_PM_at),[4],3.95
same,FC Npas2 (1421037_PM_at),[4],1.56
same,FC Tnfaip2 (1416273_PM_at),[4],1.54
